Where two headings read alike, the source gives them in different places.
Legend:
HTT mRNA = assay: Gene panel canonical junction qPCR assay, HTT CJ mRNA decrease; type: cell-based, human; settings: Homo sapiens, decrease in CJ mRNA levels, read-out: HTT IC50
Method: (§1) Compounds described herein were used to modulate RNA transcript abundance in cells. The expression of a target mRNA was measured by detecting the formation of an exon-exon junction in the canonical transcript (CJ). A compound mediated exon-inclusion event was detected by observing an increase in formation of a new junction with an alternative exon (AJ). Real-time qPCR assays were used to detect these splicing switches and interrogate the potency of various compounds towards different target genes. A high-throughput real time quantitative PCR (RT-qPCR) assay was developed to measure these two isoforms of the mRNA (CJ and AJ) for exemplary genes, such as HTT, SMN2, and MYB, together with a control housekeeping gene, GAPDH or GUSB or PPIA, used for normalization. Briefly, the A673 or K562 cell line was treated with various compounds described herein (e.g., compounds of Formula (I), (I), or (III)). After treatment, the levels of the HTT, MYB, or SMN2 mRNA targets were determined from each sample of cell lysate by cDNA synthesis followed by qPCR.
(§2) The data analysis was performed by first determining the ΔCt vs the housekeeper gene. This ΔCt was then normalized against the DMSO control (ΔΔCt) and converted to RQ (relative quantification) using the 2^(−ΔΔCt) equation. The RQ were then converted to a percentage response by arbitrarily setting an assay window of 3.5 and 4.0 ΔCt for HTT-CJ and MYB-CJ respectively and an assay window of 9 and 3 ΔCt for HTT-AJ and MYB-AJ in 96 well format (50,000 K562 cells/well and 15,000 A673 cells per well) and an assay window of 3 and 4 ΔCt for HTT-CJ and MYB-CJ respectively and an assay window of 5 and 3 ΔCt for HTT-AJ and MYB-AJ respectively in 384 well format (8,000 K562 cells/well example). […] The percentage response was then fitted to the 4 parametric logistic equation to evaluate the concentration dependence of compound treatment. The increase in AJ mRNA is reported as AC50 (compound concentration having […] in AJ increase) while the decrease in CJ mRNA levels is reported as IC50 (compound concentration having 50) response in CJ decrease).
(§3) Additional studies were carried out for a larger panel of genes using the protocol provided above. The junction between flanking upstream and downstream exons was used to design canonical junction qPCR assays. At least one of the forward primer, reverse primer or the CY5-labeled 5′ nuclease probe (with 3′ quencher such as ZEN/Iowa Black FQ) was designed to overlap with the exon junction to capture the CJ mRNA transcript. BLAST was used to confirm the specificity of the probeset and parameters such as melting temperature, GC content, amplicon size, and primer dimer formation are considered during their design. Data for the decrease in CJ mRNA levels for four exemplary genes (HTT, SMN2, MYB, and Target C) analyzed in this panel are reported as IC50 (compound concentration having […] in CJ decrease).
(§4) A summary of the results from the panel is illustrated in Tables 5A and 51B, wherein “A” represents an IC50 of less than 100 nM; “B” represents an IC50 of between 100 nM and 1 μM; and “C” represents an IC50 of between 1 μM and 10 μM; and “D” represents an IC50 of greater than 10 μM.

Target C mRNA = assay: Gene panel canonical junction qPCR assay, Target C CJ mRNA decrease; type: cell-based; settings: Homo sapiens, decrease in CJ mRNA levels, read-out: Target C IC50
Method: as §1, §2, §3, §4

MYB mRNA = assay: Gene panel canonical junction qPCR assay, MYB CJ mRNA decrease; type: cell-based, human; settings: decrease in CJ mRNA levels, read-out: MYB IC50
Method: as §1, §2, §3, §4

SMN2 mRNA = assay: Gene panel canonical junction qPCR assay, SMN2 CJ mRNA decrease; type: cell-based, human; settings: decrease in CJ mRNA levels, read-out: SMN2 IC50
Method: as §1, §2, §3, §4

| SMILES | IC50 (HTT mRNA) [µM] | IC50 (Target C mRNA) [µM] | IC50 (MYB mRNA; Homo sapiens) [µM] | IC50 (SMN2 mRNA; Homo sapiens) [µM] | IC50 (MYB mRNA) [µM] | IC50 (SMN2 mRNA) [µM] |
| --- | --- | --- | --- | --- | --- | --- |
| Cc1cn2nc(NC(=O)c3sc([C@H]4CCN[C@@H](C)C4)cc3F)cc(C)c2n1 [Compound 577] | 0.1 to 1 | 0.1 to 1 | 0.1 to 1 | 1 to 10 |  |  |
| Cc1cn2nc(NC(=O)c3sc([C@H]4CCN[C@H](C)C4)cc3F)cc(C)c2n1 [Compound 578] | 0.1 to 1 | 1 to 10 | < 0.1 | 1 to 10 |  |  |
| Cc1cn2nc(NC(=O)c3sc([C@@H]4CCN[C@@H](C)C4)cc3F)cc(C)c2n1 [Compound 579] | < 0.1 | 0.1 to 1 | < 0.1 | 0.1 to 1 |  |  |
| Cc1cn2cc(-c3cc(F)c(C(=O)N[C@H]4CCN[C@H](C)C4)s3)nc2c(C)n1 [Compound 583] | > 10 | > 10 | 1 to 10 | > 10 |  |  |
| Cc1cn2cc(NC(=O)c3sc([C@@H]4CCN[C@H](C)C4)cc3F)cc(F)c2n1 [Compound 589] | 0.1 to 1 | 1 to 10 | < 0.1 | 1 to 10 |  |  |
| Cc1cn2cc(NC(=O)c3sc([C@@H]4CCN[C@@H](C)C4)cc3F)cc(F)c2n1 [Compound 591] | 0.1 to 1 | 0.1 to 1 | < 0.1 | 1 to 10 |  |  |
| Cc1cn2cc(NC(=O)c3sc([C@H]4CCN[C@H](C)C4)cc3F)cc(F)c2n1 [Compound 592] | 0.1 to 1 | 1 to 10 | 0.1 to 1 | 1 to 10 |  |  |
| Cc1cn2cc(NC(=O)c3sc(N4CCN(C)C(C)C4)cc3F)cc(F)c2n1 (centres unmarked) [Compound 602] | > 10 | > 10 | 0.1 to 1 | > 10 |  |  |
| Cc1cn2cc(NC(=O)c3sc(N4CCNC(C)(C)C4)cc3F)cc(F)c2n1 [Compound 604] | > 10 | > 10 | 1 to 10 | > 10 |  |  |
| Cc1cn2cc(NC(=O)c3sc(N4CC(C)(C)NC(C)(C)C4)cc3F)cc(F)c2n1 [Compound 606] | 1 to 10 | 1 to 10 | 0.1 to 1 | > 10 |  |  |
| Cc1cn2cc(NC(=O)c3sc(N4CC5(CNC5)C4)cc3F)cc(F)c2n1 [Compound 607] | > 10 | 1 to 10 | 1 to 10 | > 10 |  |  |
| Cc1cn2cc(NC(=O)c3sc(N4CC5(CN(C)C5)C4)cc3F)cc(F)c2n1 [Compound 608] | > 10 | > 10 | 1 to 10 | > 10 |  |  |
| Cc1cn2cc(NC(=O)c3sc(N4CCC(N5CCCC5)C4)cc3F)cc(F)c2n1 (centres unmarked) [Compound 609] | 1 to 10 | 1 to 10 | 0.1 to 1 | 1 to 10 |  |  |
| Cc1cn2cc(NC(=O)c3sc(N4CCC(N(C)C)C4)cc3F)cc(F)c2n1 (centres unmarked) [Compound 611] | > 10 | 1 to 10 | 0.1 to 1 | > 10 |  |  |
| Cc1cn2cc(NC(=O)c3sc(N4CCN5CCCC5C4)cc3F)cc(F)c2n1 (centres unmarked) [Compound 612] | > 10 | 1 to 10 | 1 to 10 | > 10 |  |  |
| Cc1cn2cc(NC(=O)c3sc(N4CCC(N(C)C)CC4)cc3F)cc(F)c2n1 [Compound 613] | 1 to 10 | > 10 | 0.1 to 1 | > 10 |  |  |
| Cc1cn2cc(NC(=O)c3sc(N4CCC(NC(C)(C)C)CC4)cc3F)cc(F)c2n1 [Compound 614] | > 10 | > 10 | 1 to 10 | > 10 |  |  |
| Cc1cn2cc(NC(=O)c3sc(C4CCNCC4)cc3F)cc(F)c2n1 [Compound 617] | 1 to 10 | 1 to 10 |  |  | 1 to 10 | 1 to 10 |
| Cc1cn2cc(NC(=O)c3sc(C4CCN(C)CC4)cc3F)cc(F)c2n1 [Compound 618] | > 10 | 1 to 10 | 1 to 10 | 1 to 10 |  |  |
| CCN1CCC(c2cc(F)c(C(=O)Nc3cc(F)c4nc(C)cn4c3)s2)CC1 [Compound 619] | 0.1 to 1 | 0.1 to 1 | < 0.1 | 0.1 to 1 |  |  |
| Cc1cn2cc(NC(=O)c3sc(C4CC(C)(C)NC(C)(C)C4)cc3F)cc(F)c2n1 [Compound 621] | 0.1 to 1 | 1 to 10 | 0.1 to 1 | 1 to 10 |  |  |
| Cc1cn2cc(NC(=O)c3sc(N(C)C4CC(C)(C)NC(C)(C)C4)cc3F)cc(F)c2n1 [Compound 622] | 0.1 to 1 | 0.1 to 1 | < 0.1 | 1 to 10 |  |  |
| CC1CC(c2cc(F)c(C(=O)Nc3ccc4cn(C)nc4c3)s2)CCN1 (centres unmarked) [Compound 624] | > 10 | 1 to 10 | 0.1 to 1 | > 10 |  |  |
| CC1CC(c2cc(F)c(C(=O)Nc3cc(F)c4cn(C)nc4c3)s2)CCN1 (centres unmarked) [Compound 625] | 1 to 10 | 1 to 10 | 1 to 10 | 1 to 10 |  |  |
| Cc1nc2c(F)cc(NC(=O)c3sc(N4CCNC(C)C4)cc3F)cc2o1 (centres unmarked) [Compound 637] | > 10 | > 10 | > 10 | > 10 |  |  |
| Cc1cn2cc(NC(=O)c3sc(N4CCNC(C)C4)cc3F)c(C)cc2n1 (centres unmarked) [Compound 639] | 1 to 10 | 1 to 10 | 0.1 to 1 | 0.1 to 1 |  |  |
| Cc1cn2cc(NC(=O)c3sc(N4CCNC(C)C4)cc3F)ncc2n1 (centres unmarked) [Compound 640] | > 10 | 1 to 10 | 0.1 to 1 | 0.1 to 1 |  |  |
| Cc1cn2cc(NC(=O)c3sc(N4CCNC(C)C4)cc3F)nc2c(C)n1 (centres unmarked) [Compound 641] | > 10 | > 10 | 1 to 10 | > 10 |  |  |
| Cc1cn2nc(NC(=O)c3sc(N4CCNC(C)C4)cc3F)nc2c(C)n1 (centres unmarked) [Compound 642] | > 10 | > 10 | 0.1 to 1 | > 10 |  |  |

— patent US20240409536A1, “COMPOUNDS AND METHODS FOR MODULATING SPLICING” (REMIX THERAPEUTICS INC., priority 2021, published 2024)
